{
  "source": "patent US20040235759A1",
  "about": "“Use of azalide antibiotic compositions for treating or preventing a bacterial or protozoal infection in mammals” (Pfizer Inc, priority 2000, published 2004)",
  "key": {"[1]": {"system": "Actinobacillus pleuropneumoniae", "experiment": "Pigs at a high risk for developing an Actinobacillus pleuropneumoniae infection, seeder-pig exposure (Example 8)", "type": "in vivo", "text": "One hundred and thirty clinically healthy pigs having an average body weight of approximately 10 kg were purchased, identified with an ear tag and acclimated to the study site 2 days before the study began. On day −1, all animals were weighed and 100 animals were selected for consistency of body weight (about 10 kg) and lack of signs of clinical abnormalities. Selected animals (20 per treatment) were randomly assigned to treatment and sorted into individual pens. A group of 25 additional animals were randomly assigned as seeder pigs (5 per treatment). […] Temperatures and illness scores were recorded daily. […] An estimate of the percentage of affected lung tissue was determined and recorded. […]\n(§1) Assessment of efficacy was determined based upon comparison of mean daily illness scores, temperatures and lung-lesion scores. Differences between treatments for mean daily rectal temperatures and illness scores were evaluated by a repeated-measures analysis of variance. […]"}, "[2]": {"system": "Pasteurella multocida", "experiment": "Therapeutic efficacy in swine infected with Pasteurella multocida (Example 5)", "type": "in vivo", "conditions": "pigs, P. multocida challenge, 1.25 mg/kg intramuscular", "text": "By Apotency-actual@ number, as used herein, is meant the actual mg per mL of the substantially pure mixture or equilibrium mixture of N-(n-propyl) isomer I and N-(n-propyl) isomer II present in the pharmaceutical composition.\nFifty clinically normal and healthy pigs having a consistent body weight of approximately 10 kg were selected from a pool of 60 animals. Selected animals (10 per treatment) were randomly assigned to treatment and sorted into pens accordingly. On day 0, each animal was inoculated endotracheally with 25 mL of Pasteurella multocida challenge culture. […] Temperatures and illness scores were recorded 6 hours post-challenge and once daily beginning at 24 hours post-challenge. […] An estimate of the percentage of affected lung tissue was determined and recorded. […]\nas §1, with “repeated measures” for “repeated-measures”, “variance. Differences between mean lung-lesion scores for each treatment were evaluated using a factorial analysis of variance procedure.” for “variance.”"}, "[3]": {"experiment": "Equilibration of N-(n-propyl) isomer I and isomer II in heated aqueous acid solution, HPLC (Example 2, Table 1)", "type": "physicochemical", "conditions": "N-(n-propyl) isomer I prior to equilibration, for comparison", "text": "The equilibrium ratio of N-(n-propyl) isomer I and N-(n-propyl) isomer II (about 90%±4% to about 10%±4%, respectively) was consistent for all experiments. […] Without being bound by any theory, lower equilibration temperatures or lower pH values generally result in substantially longer equilibration times. Equilibration time can also depend on, inter alia, the concentration of starting material, and the type and concentration of the acid used. N-(n-propyl) isomer I at a concentration of up to about 300 mg per mL of composition was heated to a temperature of about 40° C. to about 80° C. in the presence of one or more acids at a concentration of about 0.2 mmol to about 1.0 mmol per mL of mixture and with a sufficient quantity of hydrochloric acid to achieve a pH of about 6.5 to about 7.5 for up to about 20 hours to produce an equilibrium mixture of isomers that is about 95%-98% pure. Equilibration kinetic parameters and impurity levels for equilibration of N-(n-propyl) isomer I and N-(n-propyl) isomer II were determined as a function of pH, equilibration temperature, type of acid, and N-(n-propyl) isomer I concentration and are listed in Table 1. […]\nEquilibrium mixtures of isomers were prepared and assayed as follows. […] Where 0.1 M citric or tartaric acid was used, hydrochloric acid was also added in a quantity sufficient to obtain the pH listed in column 2. […]"}, "[4]": {"system": "Eimeria bovis, Eimeria aubumenis and Eimeria zuernii coccidia oocysts", "experiment": "Calves challenged with a coccidia challenge culture (Example 9)", "type": "in vivo", "text": "Sixty naive calves weighing approximately 110-125 kg were purchased from local dairies, weighed, identified by ear tag, and observed for general health assessments. Animals considered physically abnormal, undersized or moribund on arrival were excluded from the study. Calves were housed in five holding pens (12 animals/pen). Calves were held for 7 days prior to challenge in order to acclimate them to the facility. Prior to challenge, calves were excluded from the study at the discretion of the investigator. On days −6, −4 and −2 pre-challenge, fecal samples were obtained for semi-quantitative oocyst counts. On day −4 pre-challenge, oocysts, if present, were speciated.\nOn day 8 post-arrival (study day 0), calves were inoculated orally with the Eimeria culture. Beginning on day 1, temperatures were determined and recorded at approximately the same time each day for the duration of the study. Attitude, hydration and fecal consistency scores were evaluated daily. Post-challenge, fecal samples were collected on days 2, 4, 6, 8 and 10. Oocysts were speciated on day 10 post-challenge. On day 10 post-challenge, fifty animals were randomly allotted to one of five treatment groups using a randomized block allotment. Treatments were equally represented in each pen. Animals were injected subcutaneously with a single dose of one of the following solutions: (1) about 4 mL of sterile 0.9% sodium chloride (saline); (2) about 4 mL of 300 mg/mL MICOTIL at a dose of 10 mg/kg of body weight; (3) about 6 mL of the pharmaceutical composition at a dose of 5 mg/kg of body weight; (4) about 3 mL of the pharmaceutical composition at a dose of 2.5 mg/kg of body weight; or animals were drenched dosed orally with (5) about 2 oz. of amprolium in a 9.6% oral solution at a dose of 10 mg/kg of body weight. Only amprolium was re-administered on each of the following four days. All other treatments were given in a single dose injection. Fecal samples were examined semi-quantitatively post-treatment for shedding of coccidia oocysts on days 12, 14, 16 and 18. Beginning on day 19 and continuing through day 28, daily fecal samples were evaluated for semi-quantitative counts. Speciation of shed oocysts was performed on days 19-21, 23, 26 and 28. Calves that died during the course of the study or that were euthanized due to a moribund condition associated with clinical coccidiosis were counted as mortalities. Mortalities were necropsied and gross findings were recorded. At the termination of the study on day 28, all remaining animals were weighed, euthanized and examined post-mortem.\nAssessment of drug efficacy was determined based upon analysis of mean daily clinical scores, temperature and oocyst shedding. Differences in clinical scores and temperature between different treatments were evaluated by repeated measures ANOVA. Differences in weight gain were determined by factorial ANOVA. Comparisons of mortality rates and oocyst shedding between treatments was performed using Chi-Square analysis and Fisher's Exact test."}, "[5]": {"conditions": "amprolium, MICOTIL, or pharmaceutical composition at either dose level"}},
  "data": [
    {"compound": "CN1C[C@@H]2C[C@H]1CN2c1cc2c(cc1F)c(=O)c(C(=O)O)cn2C1CC1", "note": "[Danofloxacin, danofloxacin]", "values": [
      {"measurement": "Mean Lung-lesion Score", "setting": "[1]; pigs exposed to A. pleuropneumoniae seeder pigs, 1.25 mg/kg intramuscular, re-administered on each of the following two days", "value": 4.8, "unit": "%"},
      {"measurement": "mean daily illness scores in the saline-treated pigs compared to treated animals", "setting": "[1]; pigs, danofloxacin 1.25 mg/kg x3, pharmaceutical composition 2.5, 5, 10 mg/kg", "value": "Statistically significant (p<0.05) elevations"},
      {"measurement": "Mean Lung Lesion Score (%)", "setting": "[2]; re-administered on each of the following two days", "value": 1.9, "unit": "%"},
      {"measurement": "mean daily illness scores", "setting": "[2]; three doses, saline about 3", "value": "about 2"}
    ]},
    {"compound": "CCCNC[C@]1(O)[C@H](C)O[C@@H](O[C@H]2[C@H](C)[C@@H](O[C@@H]3O[C@H](C)C[C@H](N(C)C)[C@H]3O)[C@](C)(O)C[C@@H](C)CN[C@H](C)[C@@H](O)[C@](C)(O)[C@@H](CC)OC(=O)[C@@H]2C)C[C@@]1(C)OC", "note": "[DS]", "values": [
      {"measurement": "% Equilibrium mixture of isomers", "setting": "[3]", "value": 98.39, "unit": "%"},
      {"measurement": "% Impurities", "setting": "[3]", "value": 1.61, "unit": "%"}
    ]},
    {"compound": "CCCc1ncc(C[n+]2ccccc2C)c(N)n1", "note": "[Amprolium, amprolium]", "values": [
      {"measurement": "21-day Average Daily Weight Gain", "setting": "[4]; 10 mg/kg oral drench from day 10 post-challenge, re-administered on each of the following four days", "value": 0.60, "unit": "kg"},
      {"measurement": "mean daily hydration scores compared to the saline treated calves", "setting": "[4]; amprolium 10 mg/kg oral", "value": "statistically significant reductions (p<0.05)"},
      {"measurement": "mean daily attitude scores compared to the saline controls", "setting": "[4]; [5]", "value": "significant reductions (p<0.05)"},
      {"measurement": "mean daily fecal consistency scores compared to the saline treated calves", "setting": "[4]; [5]", "value": "statistically significant reductions (p<0.05)"},
      {"measurement": "oocyst shedding compared to the saline controls", "setting": "[4]; days 19-28 post-challenge", "value": "decreased"}
    ]}
  ]
}
